Source: PMC11360180, “Enhancement of Antimicrobial Function by L/D-Lysine Substitution on a Novel Broad-Spectrum Antimicrobial Peptide, Phylloseptin-TO2: A Structure-Related Activity Research Study” (Pharmaceutics, 2024)
Where no end group is shown, it is not given here.

How the values were obtained:
S. aureus (ATCC 6538) = assay type: cell-based, Staphylococcus aureus; conditions: ATCC 6538, 24 h
Excerpt: (§1) Seven microorganism strains were used to preliminarily evaluate the antimicrobial activity of PSTO2 and its analogues, including Staphylococcus aureus (S. aureus) (ATCC® 6538), methicillin-resistant Staphylococcus aureus (MRSA) (NCTC® 12493), Enterococcus faecalis (E. faecalis) (NCTC® 12697), E. coli (ATCC® 8739), Klebsiella pneumonia (K. pneumonia) (ATCC® 43816), Pseudomonas aeruginosa (P. aeruginosa) (ATCC® CRM 9027), Acinetobacter baumanni (A. baumanni) (BAA® 747), and Candida albicans (C. albicans) (ATCC® 10231). In this study, the strains were cultured in Mueller–Hinton broth (MHB), nutrient broth (NB), and yeast–peptone–dextrose broth (YPD-B) correspondingly at 37 °C, with shaking at 120 rpm. Each peptide was dissolved from 128 μM to 1 μM and mixed with the bacterium at 5 × 10^5 CFU/mL. In this process, bacteria with culture medium were used as the growth control group; PBS was set up as the vehicle control group; sterile culture medium was used as the blank control group; and Norfloxacin at a concentration of 2 mg/mL and amphotericin B at a concentration of 1 mg/mL were set up as the positive control group for bacteria and fungi, respectively.
(§2) After being incubated for 24 h, a Synergy HT plate reader (Bio-Tek, Shoreline, WA, USA) was used to detect the absorbance of each well in the 96-well plate at λ = 550 nm. The concentration at which no visible turbidity could be recorded was the MIC value. Beginning from the MIC value, 10 µL of solution in each clear well was dropped on the sterile agar plates. The plate was checked the next day for colony formation, and the lowest concentration at which no colony growing was recorded as an MBC value.

A. baumannii (BAA 747) = assay type: cell-based, Acinetobacter baumanni; conditions: BAA 747, 24 h
Excerpt: as §1, §2

[1] = test system: K. pneumonia (ATCC 43816); assay type: cell-based, Klebsiella pneumonia; conditions: ATCC 43816, 24 h
Excerpt: as §1, §2

[2] = test system: P. aeruginosa (ATCC 9027); assay type: cell-based, Pseudomonas aeruginosa; conditions: ATCC 9027, 24 h
Excerpt: as §1, §2

C. albicans = assay type: cell-based, Candida albicans; conditions: 24 h
Excerpt: as §1, §2

[3] = test system: MRSA (ATCC 12493) biofilm; assay type: cell-based, methicillin-resistant Staphylococcus aureus; conditions: ATCC 12493, 24 h
Description: (§3) To test the anti-biofilm ability of PSTO2 and its analogues, three types of microorganisms (S. aureus ATCC® 6538, E. coli ATCC® 8739, and MRSA NCTC® 12493) were chosen. Tryptic soy broth (TSB) and Lysogeny broth (LB) were used to culture microorganisms. The peptide was dissolved in an autoclaved PBS solution and diluted into concentrations ranging from 51,200 µM to 100 µM. One µL of peptide solution of each concentration was added into a 96-well plate with 100 µL bacterium at 5 × 10^5 CFU/mL. The plate was incubated at 37 °C for 24 h, with shaking at 200 rpm. After overnight incubation, the planktonic bacteria were washed up. Then, 100 µL of methanol was used to fix the biofilms onto the bottom, and 100 µL of 0.1% crystal violet solution (Sigma-Aldrich, Gillingham, UK) was added to each well to stain the biofilms. After drying, 160 µL of acetic acid (30% in deionised water, Sigma-Aldrich, UK) was added to each well to dissolve the shaded parts. The absorbance was detected with the Synergy HT plate reader at λ = 595 nm.
(§4) For the MBEC assay, 100 µL of the bacterium of 5 × 10^5 CFU/mL was transferred into an empty 96-well plate, and the plate was incubated at 37 °C for 24 h to obtain the biofilms primarily. Then, the peptide solution from 512 µM to 1 µM was transferred into a corresponding well, followed by 24 h incubation at 37 °C, with shaking at 200 rpm. After this, the plate was handled using the identical method to the plate in the MBIC assay, and the absorbance of each well was detected with the Synergy HT plate reader at λ = 595 nm. The minimum concentration at which the peptide can eradicate the existing biofilm was recorded as the MBEC value.

MCF-7 = assay type: cell-based, human; conditions: 24 h
Description: (§5) The percentage of cancer cell survival after being treated with peptides was assessed with 3-(4,5-dimethylthiazol-2-yl-)-2,5-diphenyltetrazolium bromide (MTT). The principle is the reduction process of the yellow tetrazolium to DMSO-soluble formazan crystals caused by the metabolic capability of living cells. All the cancerous and normal cells were obtained from the American Type Culture Collection (Rockville, VA, USA). Human lung cancer NCI-H838 and NCI-H460 were cultured in Roswell Park Memorial Institute (RPMI)-1640 medium (Gibco, Paisley, UK) and mixed with 10% (v/v) fetal bovine serum (FBS) (Gibco, Campinas, Brazil) and 1% penicillin–streptomycin (Gibco, Grand Island, NY, USA) 89/10/1 v/v/v). U251MG and MCF-7 were cultured in Dulbecco’s Modified Eagle medium (DMEM) (Gibco, Paisley, UK) and mixed with 10% FBS and 1% penicillin–streptomycin. HCT 116 was cultured in McCoy’s 5A (modified) medium (Gibco, Paisley, UK) and mixed with 10% FBS and 1% penicillin–streptomycin. MRC-5 and HaCat were cultured in Minimum Essential Medium (MEM) (Gibco, Paisley, UK) and mixed with 10% FBS and 1% penicillin–streptomycin. Cells were cultured and seeded in a 96-well plate at a density of 8000 cells/well with the corresponding medium and incubated for 24 h at 37 °C with 5% CO2. After 24 h of incubation, the cells were starved with a serum-free medium for 4 h at 37 °C. Then, the cells were incubated with different concentrations of peptide solution in a serum-free medium from 1 nM to 100 µM at 37 °C for 24 h. Meanwhile, triton X-100 (0.1%) (Sigma-Aldrich, St. Louis, MO, USA) and PBS were chosen as positive and negative controls. After 10 µL of MTT (5 mg/mL) was added to each well away from light and incubated at 37 °C for 2 h, the formazan generated by mitochondria was dissolved with DMSO. The absorbance was detected at a wavelength of 570 nm by a Synergy HT plate reader (Bio-Tek, Shoreline, WA, USA).

NCI-H460 = assay type: cell-based, human; conditions: 24 h
Description: as §5

NCI-H838 = assay type: cell-based, human; conditions: 24 h
Description: as §5

U251MG = assay type: cell-based, human; conditions: 24 h
Description: as §5

HaCat = assay type: cell-based; conditions: 24 h
Description: as §5

MRC-5 = assay type: cell-based; conditions: 24 h
Description: as §5

horse red blood cells = assay type: cell-based
Description: To assess the haemolytic activity of PSTO2 and its analogues, 2% fresh defibrinated horse red blood cells (TCS Biosciences Ltd., Buckingham, UK) were acquired after being washed and resuspended in sterile PBS. Each peptide was dissolved in PBS to prepare solutions with concentrations ranging from 2 µM to 1024 µM. Subsequently, 100 µL of each peptide solution was mixed with 100 µL of the red blood cell suspension. The red blood cells treated with 1% triton X-100 and sterile PBS in equivalent volumes were set up as the positive and negative control groups, respectively. Then, all the samples were incubated at 37 °C for 2 h. Thereafter, the samples were centrifuged at 900× g for 10 min. Finally, 100 µL of supernatant of each sample was transferred into a 96-well plate, and the absorbance was recorded by a Synergy HT plate reader (Bio-Tek, Shoreline, WA, USA) at a wavelength of 570. The following equation was used to calculate haemolysis activity:Haemolysis activity = (Sample absorbance − Ab)/(Ap − Ab) × 100% where Ab refers to the mean value of absorbance of the negative control (incubated with PBS only), and Ap refers to the mean absorbance value of the positive control (incubated with triton X-100).

MRSA (NCTC 12493) = assay type: cell-based, methicillin-resistant Staphylococcus aureus; conditions: NCTC 12493, 24 h
Excerpt: as §1, §2

E. coli (ATCC 8739) = assay type: cell-based, Escherichia coli; conditions: ATCC 8739, 24 h
Excerpt: as §1, §2

[4] = test system: S. aureus (ATCC 6538) biofilm; assay type: cell-based, Staphylococcus aureus; conditions: ATCC 6538, 24 h
Description: as §3, §4

[5] = test system: E. coli (ATCC 8739) biofilm; assay type: cell-based, Escherichia coli; conditions: ATCC 8739, 24 h
Description: as §3, §4

| Substance | MBC (S. aureus (ATCC 6538)) [µM] | MBC (A. baumannii (BAA 747)) | MIC (A. baumannii (BAA 747)) [µM] | MBC [1] | MBC [2] [µM] | MIC [2] [µM] | MBC (C. albicans) [µM] | MIC (C. albicans) [µM] | MBIC [3] [µM] | HC10 (horse red blood cells) | MIC (S. aureus (ATCC 6538)) [µM] | MBC (MRSA (NCTC 12493)) [µM] | MIC (MRSA (NCTC 12493)) [µM] | MBC (E. coli (ATCC 8739)) | MBEC [4] [µM] | MBIC [4] [µM] | MBEC [3] [µM] | MBEC [5] [µM] | MBIC [5] [µM] | other results |
| --- | --- | --- | --- | --- | --- | --- | --- | --- | --- | --- | --- | --- | --- | --- | --- | --- | --- | --- | --- | --- |
| FLSLIPHAISAVSALAKHL-NH2 [PSTO2, phylloseptin-TO2] | 4 | >128 µM | >128 | 128 µM | >128 | >128 | 128 | 32 | 4 | 21.78 | – | – | – | – | – | – | – | – | – | MIC [1]: 64 µM; IC50 (MCF-7): 23.1 µM; IC50 (NCI-H460): 78.3 µM; IC50 (NCI-H838): 85.8 µM; IC50 (U251MG): 84 µM; IC50 (HaCat): 70.58 µM; IC50 (MRC-5): 73.22 µM |
| FLSLIPKAISAVSALAKHL-NH2 [Peptide 7K] | 4 | >128 µM | >128 | 8/8 μM | 32 | 32 | 64 | 32 | 4 | 21.97 | 4 | 8 | 4 | 8 µM | 32 | 16 | 32 | 64 | 16 | MIC (E. coli (ATCC 8739)): 8 µM |
| FLSLIPKAISAVSALAKKL-NH2 [Peptide 18K] | 4 | 32/32 μM | – | 16/16 μM | 64 | 32 | 128 | 32 | 4 | 20.59 | 2 | 4 | 4 | 4/4 μM | 32 | 8 | 32 | 64 | 32 | – |
